The text below walks through data of US9096630B2, “Amphiphilic compositions and methods for preparing and using same” (Yale University, priority 2009, dated 2015).

The nature of data set [1]: Critical micelle concentration and surface tension measurement (tensiometer, Pt plate). It counts as physicochemical. The settings on record: for CMC / γmin: room temperature; for CMC: DI water; for γmin: DI water (calibrated to 72.7±0.2 mN/m); for behavior in terms of CMC compared with Compound 1 / behavior in terms of interfacial tension (γ) reduction compared with Compound 1: photoisomers of Compound 1. How it is done: To characterize the behavior of the compounds of this invention as surfactants, surface tension can be plotted as a function of concentration and critical micelle concentrations (CMCs) of these surfactants can be calculated. In addition, the hydrophobic-lipophilic balance (HLB) of a surfactant can be calculated according to Griffin's Method. See e.g., Pasquali, R. C.; Taurozzi, M. P.; Bregni, C. Int. J. Pharm.
The CMC for compounds of the invention is determined using known methods in the art.
See, e.g., Pasquali, R. C.; Taurozzi, M. P.; Bregni, C. Int. J. Pharm. […] 14.

Data set [2] can be described thus: Ross-Miles foam test (ASTM D1173). It counts as physicochemical. As to conditions: for foam enhancing and stabilizing capability compared with Compound 1: photoisomers of Compound 1.
For data set [3] the following is noted: O-alkylglucoside reference, see Rybinski and Hill 1998; cited from earlier work.

Read-outs that look alike come from different tables or passages of the source.

As for `CCCCC/C=C/C(=O)C[C@@H]1O[C@H](CO)[C@@H](O)[C@H](O)[C@H]1O` [Compound 46, (E)-1-((2S,3R,4R,5S,6R)-3,4,5-trihydroxy-6-(hydroxy-methyl)tetrahydro-2H-pyran-2-yl)non-3-en-2-one], in data set [1], the CMC is 3.9 mM and the γmin came out at 24 mN/m.
Regarding `CCCCCCCCCCC/C=C/C(=O)C[C@@H]1O[C@H](CO)[C@@H](O)[C@H](O)[C@H]1O` [Compound 1, (E)-1-((2S,3R,4R,5S,6R)-3,4,5-trihydroxy-6-(hydroxymethyl)tetrahydro-2H-pyran-2-yl)pentadec-3-en-2-one], in data set [1], the CMC is 0.1 mM and the γmin turned out to be 28 mN/m.
For `CCCCCCCCCC/C=C\CC(=O)C[C@@H]1OC(CO)[C@@H](O)[C@H](O)C1O` (some centres unmarked) [Compound 48], in data set [1], the “behavior in terms of CMC compared with Compound 1” value is on record as “substanitally the same behavior” and the “behavior in terms of interfacial tension (γ) reduction compared with Compound 1” value is “substanitally the same behavior”. Besides, in data set [2], the “foam enhancing and stabilizing capability compared with Compound 1” value is “substanitally the same behavior”.
For the compound `CCCCCCCCO[C@@H]1O[C@H](CO)[C@@H](O)[C@H](O)[C@H]1O` [Octyl-AG], in data set [3], the CMC is listed as 18.0 mM and the γmin was 24 mN/m.
`CCCCCCCCCC/C=C/CC(=O)C[C@@H]1OC(CO)[C@@H](O)[C@H](O)C1O` (some centres unmarked) [Compound 47]: in data set [1], the “behavior in terms of CMC compared with Compound 1” value is “substanitally the same behavior” and the “behavior in terms of interfacial tension (γ) reduction compared with Compound 1” value is on record as “substanitally the same behavior”. For the same compound, the “foam enhancing and stabilizing capability compared with Compound 1” value in data set [2] was “substanitally the same behavior”.
In data set [1], `CCCC1CC(=O)C([C@@H]2O[C@H](CO)[C@@H](O)[C@H](O)[C@H]2O)=CC1CC` (stereo partly drawn) [Compound 2, 4-ethyl-5-propyl-2-((2S,3R,4R,5S,6R)-3,4,5-trihydroxy-6-(hydroxymethyl)tetrahydro-2H-pyran-2-yl)cyclohex-2-enone] had a CMC of 52.2 mM and a γmin of 30 mN/m.
Turning to `CCCCCCCCCCCCO[C@@H]1O[C@H](CO)[C@@H](O)[C@H](O)[C@H]1O` [Dodecyl-AG], in data set [3], the CMC is on record as 0.17 mM and the γmin is on record as 24 mN/m.
For `CCCCCC1CC(=O)C([C@@H]2O[C@H](CO)[C@@H](O)[C@H](O)[C@H]2O)=CC1CCCC` (stereo partly drawn) [Compound 3, 4-butyl-5-pentyl-2-((2S,3R,4R,5S,6R)-3,4,5-trihydroxy-6-(hydroxymethyl)tetrahydro-2H-pyran-2-yl)cyclohex-2-enone], the “reduction in Interfacial Tension (IFT)” value in data set [1] (comparison of CMC curves between series, FIG. 1) is listed as “greatest reduction in Interfacial Tension (IFT)”. Moreover, the “estimated CMC” value in data set [1] (estimated from point of inflection of CMC curve, FIG. 1) was “very low”. In data set [1], this compound yielded a CMC of 0.17 mM and a γmin of 22 mN/m. The “foaming properties when combined with SDS” value in data set [2] (combined with SDS as a 20% solution, compared with SDS alone) was “exceeded that of SDS alone”. For the same compound, the “foam height over 5 minutes when combined with SDS” value in data set [2] (combined with SDS as a 20% solution, over 5 minutes) is on record as “remained unchanged”. For the same compound, the “excess foam after 5 minutes” value in data set [2] (surfactant alone, after 5 minutes, FIG. 2) is recorded as “virtually no excess foam”.
